Reference: patent US20050004070A1, “Anti-infectious carbohydrates” (priority 2001, published 2005)
Entries after “also recorded” stand apart in the source; their conditions may differ.

Tested on: listeria bacteria, in particular Listeria monocytogenes
Assay: Invasion and infection of mammal cells by listeria bacteria
Assay type: cell-based
Conditions: no method or numbers given

Row | Molecule | inhibitory action against listeria bacteria (invasion and infection of mammal cells)
1 | lacto-N-fucopentaose I [LNFP I] | particularly strong inhibitory effect; also recorded: strong, yet dose-dependant inhibitory action
2 | CC(=O)N[C@H]1[C@H](O[C@H]2[C@@H](O)[C@@H](CO)O[C@@H](O[C@@H]([C@H](O)[C@@H](O)C=O)[C@H](O)CO)[C@@H]2O)O[C@H](CO)[C@@H](O[C@@H]2O[C@@H](C)[C@@H](O)[C@@H](O)[C@@H]2O)[C@@H]1O[C@@H]1O[C@H](CO)[C@H](O)[C@H](O)[C@H]1O [LNFP II] | did not shown any such action
3 | LNFP III | did not shown any such action
